From publication PMC6149664, “Synthesis and In Vitro Antimycobacterial Activity of Novel N-Arylpiperazines Containing an Ethane-1,2-diyl Connecting Chain” (Molecules : A Journal of Synthetic Chemistry and Natural …, 2017)

Key:
[1] = Isocratic RP-HPLC lipophilicity (k, log k, extrapolated log kw, slope S), MeOH/water mobile phases; type: physicochemical; settings: for log kw (RP-HPLC): extrapolated to 100% water from log k vs ϕM (MeOH); for S, slope (RP-HPLC): slope of regression log k vs ϕM, alternative measure of lipophilicity
From the text: Octadecyl-functionalized silica gel was used as a stationary phase in the RP-HPLC evaluation of 8a–h. A gradient of two solvents at different volume ratios modulated retention properties of a stationary phase. Liquid binary mixtures of methanol (MeOH) with water were employed as mobile phases in a present isocratic RP-HPLC method. The MeOH organic modifier was preferred because of making a reversed-phase chromatographic system closer to the octan-1-ol/water partitioning one in terms of sensitivity to H-bond donor properties of investigated compounds [39, 40]. The modifier was applied in different volume concentrations that varied from 60% to 85% (v/v).
The chromatographic HPLC-Diode Array Detection apparatus for the determination of capacity (retention) factor k (log k) values was the LC Agilent Infinity System (Agilent Technologies, Santa Clara, CA, USA) equipped with a Infinity 1260 gradient pump with a degasser, a 1260 HiPals automatic injector, a column thermostat 1290, a photo-diode array detector Infinity 1290 (all the equipments were obtained by Agilent Technologies) and personal computer with the Agilent ChemStation software (Agilent Technologies) for the registration of values and calibration procedures. The chromatographic column Eclipse plus RP C18, 150 × 4.6 mm i.d., a 5 μm particle size (Agilent Technologies), was used and thermostated at 35 °C.
The analyses were performed at pressure ranged from 7 MPa to 15 MPa. The detection wavelength was set to 260 nm, injection sample volume was 5 μL with a flow rate of 1.0 mL/min in all RP-HPLC analyses.
LC-MS Methanol (J. T. Baker Chemicals Co., Phillipsburg, NJ, USA) and HPLC-quality water (Sigma-Aldrich, Darmstadt, Germany) were used for a preparation of mobile phases. Water was firstly deionized and purified by the Millipore Simplicity 185 Ultrapure water purification system (Millipore, Billerica, MA, USA).
Methanol (MeOH)/water mobile phases with a various volume ratio of the organic modifier and water (60:40, 70:30, 80:20 and 85:15, respectively; v/v) were chosen. A concentration of all analyzed compounds 8a–h was c = 0.25 mg/mL. An queous solution of potassium nitrate (c = 0.1 M) was used for the determination of dead time t0 = 1.295 min. The capacity (retention) factor k values (Table 1) were calculated by Equation (6) as follows:k = (tr – t0)/t0(6) where the tr and t0 parameters were the retention times of a solute (tr) and unretained compound (potassium nitrate; t0), respectively. The observed retention (tr) and dead (t0) times were means of three independent determinations.
The log kw values, i.e., the logarithms of extrapolated capacity (retention) factors for 100% water in the isocratic RP-HPLC, were determined from intercepts of linear plots between the log k and ϕM (a volume fraction of an organic modifier in the isocratic elution RP-HPLC) according to Equation (7): log k = log kw – S × ϕM(7) where the S parameter represented the slope of a regression curve, which was related to the solvent strength of a pure organic solvent.

[2] = system: human monocytic leukemia THP-1 cell line; test: In vitro cytotoxicity screening, LDH assay; settings: 24 h
[3] = mobile phase MeOH/water 60:40 (v/v)
[4] = mobile phase MeOH/water 70:30 (v/v)
[5] = mobile phase MeOH/water 80:20 (v/v)
[6] = mobile phase MeOH/water 85:15 (v/v)

SMILES	capacity factor k (RP-HPLC) ([1]; MeOH/water 60:40 (v/v))	capacity factor k (RP-HPLC) ([1]; MeOH/water 70:30 (v/v))	capacity factor k (RP-HPLC) ([1]; MeOH/water 80:20 (v/v))	capacity factor k (RP-HPLC) ([1]; MeOH/water 85:15 (v/v))	log kw (RP-HPLC) [1]	log k (RP-HPLC) [1, 3]	log k (RP-HPLC) [1, 4]	log k (RP-HPLC) [1, 5]	log k (RP-HPLC) [1, 6]	S, slope (RP-HPLC) [1]	Effect on proliferation of the THP-1 cells compared to a control [2]	Relative survival rate of the THP-1 cells ([2]; highest tested concentration of 30 μM) [%]
COC(=O)Nc1cccc(C(O)CN2CCN(c3ccccc3F)CC2)c1.Cl (centres unmarked) [8a, 1-(2-Hydroxy-2-{3-[(methoxycarbonyl)amino]phenyl}ethyl)-4-(2-fluorophenyl)piperazin-1-ium chloride]	4.091	1.770	0.925	0.699	2.430	0.612	0.248	−0.034	−0.156	3.0678	increased proliferation	–
CCOC(=O)Nc1cccc(C(O)CN2CCN(c3ccccc3F)CC2)c1.Cl (centres unmarked) [8b, 1-(2-{3-[(Ethoxycarbonyl)amino]phenyl}-2-hydroxyethyl)-4-(2-fluorophenyl)piperazin-1-ium chloride]	4.951	2.778	1.245	0.879	2.546	0.695	0.444	0.095	−0.056	3.0529	–	–
CCCOC(=O)Nc1cccc(C(O)CN2CCN(c3ccccc3F)CC2)c1.Cl (centres unmarked) [8c, 1-(2-Hydroxy-2-{3-[(propoxycarbonyl)amino]phenyl}ethyl)-4-(2-fluorophenyl)piperazin-1-ium chloride]	5.898	3.561	1.466	1.023	2.679	0.771	0.552	0.166	0.010	3.1244	–	–
CCCCOC(=O)Nc1cccc(C(O)CN2CCN(c3ccccc3F)CC2)c1.Cl (centres unmarked) [8d, 1-(2-{3-[(Butoxycarbonyl)amino]phenyl}-2-hydroxyethyl)-4-(2-fluorophenyl)piperazin-1-ium chloride]	6.738	5.039	1.769	1.185	2.796	0.829	0.702	0.245	0.074	3.1641	–	79
COC(=O)Nc1ccc(C(O)CN2CCN(c3ccccc3F)CC2)cc1.Cl (centres unmarked) [8e, 1-(2-Hydroxy-2-{4-[(methoxycarbonyl)amino]phenyl}ethyl)-4-(2-fluorophenyl)piperazin-1-ium chloride]	3.098	1.456	0.822	0.637	2.113	0.491	0.163	−0.085	−0.196	2.7386	increased proliferation	–
CCOC(=O)Nc1ccc(C(O)CN2CCN(c3ccccc3F)CC2)cc1.Cl (centres unmarked) [8f, 1-(2-{4-[(Ethoxycarbonyl)amino]phenyl}-2-hydroxyethyl)-4-(2-fluorophenyl)piperazin-1-ium chloride]	4.524	2.053	1.023	0.757	2.512	0.656	0.312	0.010	−0.121	3.1156	–	–
CCCOC(=O)Nc1ccc(C(O)CN2CCN(c3ccccc3F)CC2)cc1.Cl (centres unmarked) [8g, 1-(2-Hydroxy-2-{4-[(propoxycarbonyl)amino]phenyl}ethyl)-4-(2-fluorophenyl)piperazin-1-ium chloride]	5.394	3.108	1.342	0.956	2.600	0.732	0.492	0.128	−0.020	3.0739	–	–
CCCCOC(=O)Nc1ccc(C(O)CN2CCN(c3ccccc3F)CC2)cc1.Cl (centres unmarked) [8h, 1-(2-{4-[(Butoxycarbonyl)amino]phenyl}-2-hydroxyethyl)-4-(2-fluorophenyl)piperazin-1-ium chloride]	7.598	4.627	1.736	1.173	2.930	0.881	0.665	0.240	0.069	3.3441	–	–
